Peptide text beside a SMILES is read from it. * marks the point of attachment. Cbz = O=C(OCc1ccccc1)*; CH2F = FC*
Legend:
HeLa nuclei = test: Pulse field gel electrophoresis of DNA from AIF-treated HeLa nuclei; type: biochemical; settings: 90 min with 100 ng AIF; 200 μM p-chloromercuryphenylsulfonic acid, 200 μM Z-VAD.fmk, 5 mM EDTA
Procedure: In addition, each nuclear preparation was assessed for the frequency of hypoploid nuclei as in A.
(§1) 2B4.11 T cell hybridoma cells stably transfected with a SFFV.neo vector containing the human bcl-2 gene or the neomycin resistance gene (Neo) only [Susin et al., J. Exp. Med. 184:1331-1342 (1996)] were subjected to mechanical lysis and differential centrifugation for the subsequent recovery of nuclei, mitochondria, and organelle-free cytosols [Liu et al. Cell 86:147-157 (1996)]. Submitochondrial fractionation of mouse liver mitochondria was controlled by the determination of suitable marker enzymes [Susin et al., J. Exp. Med. 186:25-37 (1997); Pedersen et al., Meth. Cell Biol. 20:411-481 (1978)]. Purified HeLa cell nuclei were exposed to different preparations of AIF, and nuclear apoptosis was quantitated by staining with DNA-intercalating propidium iodide and cytofluorometric determination of DNA content [Susin et al., J. Exp. Med. 186:25-37 (1997)]. Alternatively, nuclei were stained with Hoechst 33342 dye or subjected to DNA extraction and pulse field gel electrophoresis. […] The release of cytochrome c and caspase-9 into the supernatant was measured by immunoblot using a monoclonal anti-cytochrome c antibody (7H8.2C12, Pharmingen), or a rabbit antibody directed against the large subunit of caspase-9 (Hazelton Research Products Inc., Denver, Pa.).

[1] = tested on: purified rat liver mitochondria; test: Large amplitude swelling of purified mitochondria; type: biochemical; settings: Z-VAD.fmk 100-200 μM
Procedure: Purified rat liver mitochondria were monitored continuously for large amplitude swelling. Arrows indicate the addition of Ca^2+(200 μM; positive control), AIF (100 ng/ml), cytosol (100 μg protein per ml), and/or Z-VAD.fmk (100 μM, pre-added to the cytosol/AIF mixture). Note that only the combined addition of AIF plus cytosol (right panel) causes mitochondrial swelling.
as §1, with “Submitochondrial fractionation of mouse liver mitochondria was controlled by the determination of suitable marker enzymes [Susin et al., J. Exp. Med. 186:25-37 (1997); Pedersen et al., Meth. Cell Biol. 20:411-481 (1978)].” left out, “(1997)].” for “(1997)]. Alternatively, nuclei were stained with Hoechst 33342 dye or subjected to DNA extraction and pulse field gel electrophoresis.”

isolated mitochondria = test: Release of cytochrome c and caspase-9 from isolated mitochondria (immunoblot of supernatants); type: biochemical, rat; settings: rec. AIF+cytosol+Z-VAD.fmk
Procedure: Isolated mitochondria were subjected to osmotic lysis (1) or treated as in A (15 min) with buffer only (2), rec. AIF (3), cytosol (4), rec. AIF+cytosol (5), or rec. AIF+cytosol+Z-VAD.fmk (6) and their supernatants were subjected to immunoblot analysis of cytochrome c and caspase-9.
as §1, with “Cell Biol. 20:411-481 (1978)].” left out, “(1997)].” for “(1997)]. Alternatively, nuclei were stained with Hoechst 33342 dye or subjected to DNA extraction and pulse field gel electrophoresis.”

caspase = test: Cleavage of caspase substrate by mitochondrial supernatants; type: biochemical
Procedure: The same mitochondrial supernatants as in FIG. 3F were tested for their capacity to cleave the caspase substrate Z-VAD.afc, leading to the generation of the fluorochrome afc. The 100% value refers to the enzymatic activity obtained by osmotic lysis of mitochondria

Rat-1 cells [2] = test: Microinjection into the cytoplasm of Rat-1 cells, quantitation of apoptosis; type: cell-based; settings: 100 μM Z-VAD.fmk
Procedure: FIGS. 4A-4D show the effects of AIF on intact cells. […] Buffer only or recombinant AIF (10 μM) were injected into the cytoplasm of Rat-1 cells, which were cultured for 90 min in the absence or presence of 100 μM Z-VAD.fmk (added 15 min before injection). Microinjected cells could be identified because the injectate contained FITC-dextran (green fluorescence not shown). Representative (three independent experiments, 100-200 microinjected cells per session) microphotographs of viable cells stained with the DYm-sensitive dye CMXRos and Hoechst 33342 (as in FIG. 2E., upper panels) or Annexin-V, which labels surface-exposed phosphatidylserine residues (red fluorescence in lower panels).
(§2) Rat-1 fibroblast cells were microinjected (pressure 150 hPa; 0.2 sec; Marzo et al., Science 281:2027-2031 (1998)) with buffer only, atractyloside (50 μM), dialyzed antisera, AIF-derived peptides (100 μM), horse cytochrome c (Sigma), or the indicated dose of recombinant mAIF. The caspase inhibitor Z-VAD.fmk (100 μM; Bachem, Basel Switzerland) was added to the culture medium 30 min before microinjection into the cytoplasm (pressure 150 hPa; 0.2 sec). […] Microinjected viable cells (100-200 per session, two to three independent sessions of injection) were identified by inclusion of 0.25% (w:v) FITC-dextran (green fluorescence) in the injectate. Only the blue or red fluorescence was recorded. […]

Rat-1 cells [3] = test: Microinjection of anti-AIF antiserum into Rat-1 cells treated with atractyloside or staurosporin; type: cell-based; settings: for retention of DYm-sensitive dye CMXRos by cells: atractyloside 50 μM injected, staurosporin 1 μM, 120 min
Procedure: Rat-1 cells were microinjected with atractyloside (ATR, 50 μM) alone, or atractyloside diluted in control serum, anti-AIF antiserum, and/or 100 μM AIF-derived immunogenic peptides. 180 min after microinjection, cells were stained with Hoechst 33342 and CMXRos (as in FIG. 4A, upper panel). Alternatively, cells were cultured for 120 min with staurosporin (1 μM, as in FIGS. 2C-2E), added to the culture medium after microinjection of control antiserum or anti-AIF.
Rat-1 fibroblast cells were microinjected (pressure 150 hPa; 0.2 sec; Marzo et al., Science 281:2027-2031 (1998)) with buffer only, atractyloside (50 μM), dialyzed antisera, AIF-derived peptides (100 μM), horse cytochrome c (Sigma), or the indicated dose of recombinant mAIF. The caspase inhibitor Z-VAD.fmk (100 μM; Bachem, Basel Switzerland) was added to the culture medium 30 min before microinjection into the cytoplasm (pressure 150 hPa; 0.2 sec). […] Microinjected viable cells (100-200 per session, two to three independent sessions of injection) were identified by inclusion of 0.25% (w:v) FITC-dextran (green fluorescence) in the injectate. Only the blue or red fluorescence was recorded. Transfection of Jurkat T lymphoma cells was performed using AIF cloned in pcDNA3.1 (Invitrogen) vector and Lipofectamine® (Gibco Life Technologies). Cytofluorometric analyses of apoptosis-associated parameters were performed as described [Kroemer et al., “Detection of apoptosis and apoptosis associated alterations,” “The Immunology Methods Manual” (Lefkovitz, R. Ed.); Academic Press, Chapter 14.2., pp. 1111-1125 (1997)].

mouse liver mitochondria = test: AIF liberation from mitochondria by PT pore opening (Western blot of supernatants); type: biochemical; settings: 5 mM atractyloside, 200 μM Ca2+
Procedure: FIGS. 2A-2F show the submitochondrial and subcellular distribution of AIF in normal and apoptotic cells. […] Western blots were performed on total mouse liver mitochondrion lysate (1), proteins from the matrix (2), inner membrane (3), intermembrane space (4), outer membrane (5), the supernatant of untreated mitochondria (6), or that of mitochondria treated with 5 mM atractyloside (7), 200 μM Ca^2+ (8), 1 μM cyclosporin A (9), atractyloside+CsA (10), or Ca^2++cyclosporin A (11). In addition, the supernatant of atractyloside-treated mitochondria was sham-immunodepleted using a pre-immune serum (12), or AIF-immunodepleted in the absence (13) or presence (14) of AIF-derived immunogenic peptides (see Example 2, below) capable of blocking the AIF antiserum. Aliquots of each preparation were tested for their capacity to induce nuclear hypoploidy in isolated HeLa nuclei.

Rat-1 fibroblasts = test: Nuclear phenotype of staurosporine-treated Rat-1 fibroblasts; type: cell-based; settings: Neo cells; staurosporine 1 μM, 2 h
Source text: In Neo cells, staurosporine treatment leads to the generation of two phenotypes, one with partial chromatin condensation (˜80% of cells, stage I), and another with more advanced chromatin condensation and nuclear fragmentation (˜20% of cells, stage II), as identified by phase contrast microscopy or counter-staining with Hoechst 33342 (not shown). Arrow heads are placed in the center of the nucleus.
Specifically, Rabbit antiserum was generated against a mixture of 3 peptides derived from the mAIF amino acid sequence (amino acid nos. 151-170, 166-185, 181-200, coupled to KLH). This antiserum (ELISA titer ˜10.000) was used in immunoblots (1/2000) and on paraformaldehyde/picrylic acid-fixed [Bossy-Wetzel et al., EMBO J. 17:37-49 (1998)] […] Cytochrome c was detected by immunofluorescence (mAb 6H2.B4 from Pharmingen) in fixed Rat-1 cells transfected with a control vector (Neo) or with human Bcl-2 [Zhu et al., EMBO J. 15:4130-4141 (1996)] as described [Bossy-Wetzel et al., EMBO J. 17, 37-49 (1998)], whereas the DYm sensitive dye CMXRos (100 nM, red fluorescence) was used on live cells [Marzo et al., Science 281, 2027-2031 (1998)]. Cells were counterstained with the Hoechst 33342 dye (1 μM, blue fluorescence). […]

Jurkat cells = test: Transfection-enforced AIF overexpression in Jurkat cells; type: cell-based; settings: 24 hours after transfection
Procedure: Jurkat cells were transiently transfected with pcDNA3.1 vector only (control) or mouse AIF cDNA (under the control of a cytomegalovirus promoter, see pcDNA3.1 vector from Invitrogen). After 24 hours of culture, cells were stained with the indicated fluorochromes to determine the frequency of apoptosis-associated alterations: loss of DYm (fluorochrome: DiOC(6)3), phosphatidylserine exposure (fluorochrome: Annexin V-FITC), or loss of nuclear DNA (fluorochrome: propidium iodide, PI, after ethanol permeabilization). Numbers refer to the percentage of cells bearing apoptotic characteristics. Results are representative of 3 different experiments.
as §2

For `O=C(O)CN(CCN(CC(=O)O)CC(=O)O)CC(=O)O` [EDTA], the “inhibition of AIF-induced large-scale DNA fragmentation” value (HeLa nuclei) was “inhibited”.

With `COC(=O)C[C@H](NC(=O)[C@H](C)NC(=O)[C@@H](NC(=O)OCc1ccccc1)C(C)C)C(=O)CF` [Z-VAD.fmk] (Cbz-Val-Ala-Asp(OMe)-CH2F) the “prevention of AIF effects on isolated nuclei or on mitochondria” value [1] was “None of these AIF effects, either on isolated nuclei or on mitochondria, is prevented”, the “inhibition of AIF-induced release of caspase-9” value (isolated mitochondria) was “does not inhibit the release of caspase-9 but rather interferes with its proteolytic activation” and the “inhibition of caspase-substrate-cleaving activity in supernatant of mitochondria treated with AIF plus cytosol” value (caspase) was “Z-VAD.fmk-inhibitable”. The “inhibition of effects mediated by microinjected AIF” value (Rat-1 cells [2]) was “None of the effects mediated by microinjected AIF is inhibited” and the “prevention of cytochrome c-induced apoptosis” value (Rat-1 cells [2]; microinjected cytochrome c) was “succeeds in preventing cytochrome c-induced, caspase-dependent apoptosis”.

In the case of `C=C1[C@@H]2CC[C@H]3[C@]4(C)C[C@H](O[C@@H]5O[C@H](CO)[C@@H](OS(=O)(=O)O)[C@H](OS(=O)(=O)O)[C@H]5OC(=O)CC(C)C)C[C@@H](C(=O)O)[C@H]4CC[C@]3(C2)[C@H]1O` [atractyloside], the “retention of DYm-sensitive dye CMXRos by cells” value (Rat-1 cells [3]) is reported as “do not retain the DYm-sensitive dye CMXRos” and the “release of 57 kDa AIF protein from mitochondria” value (shortened to “release of 57 kDa AIF protein”) (mouse liver mitochondria) is reported as “released upon PT pore opening”.

For `[Ca+2]` [calcium], the “release of 57 kDa AIF protein” value (mouse liver mitochondria) was “released upon PT pore opening”.

For `O=S(=O)(O)c1cc[c]([Hg][Cl])cc1` [p-chloromercuryphenylsulfonic acid], the “inhibition of AIF-induced large-scale DNA fragmentation” value (HeLa nuclei) was “inhibited”.

With `CN[C@@H]1C[C@H]2O[C@@](C)([C@@H]1OC)n1c3ccccc3c3c4c(c5c6ccccc6n2c5c31)C(=O)NC4` [staurosporine] the “retention of DYm-sensitive dye CMXRos by cells” value (Rat-1 cells [3]) was “do not retain the DYm-sensitive dye CMXRos”, the “cells with more advanced chromatin condensation and nuclear fragmentation (stage II)” value (Rat-1 fibroblasts) was ~20 % of cells and the “cells with partial chromatin condensation (stage I)” value (Rat-1 fibroblasts) was ~80 % of cells.

For `CC(C)(C)OO` [tert-butylhydroperoxide], the “release of 57 kDa AIF protein” value (mouse liver mitochondria) was “released upon PT pore opening”.

“immunogenic peptides: 3 peptides derived from the mAIF amino acid sequence (amino acid nos. 151-170, 166-185, 181-200) (peptide 1 LLIGGGTAAFAAARSIRARD; peptide 2 IRARDPGARVLIVSEDPELP; peptide 3 DPELPYMRPPLSKELWFSDD)” was tested, and the “inhibitory effect of AIF-specific antibody when co-injected with excess immunogenic peptides” value (Rat-1 cells [3]; 100 μM AIF-derived immunogenic peptides) was “No such inhibitory effect is observed”.

B1: wild type AIF: AIF overexpressed in Jurkat cells by transient transfection of mouse AIF cDNA in pcDNA3.1 (protein, UniProt Q9Z0X1 1-612, looked up)
chain: MFRCGGLAGAFKQKLVPLVRTVYVQRPKQRNRLPGNLFQQWRVPLELQMARQMASSGSSGGKMDNSVLVLIVGLSTIGAGAYAYKTIKEDQKRYNERVMGLGLSPEEKQRRAIASATEGGSVPQIRAPSHVPFLLIGGGTAAFAAARSIRARDPGARVLIVSEDPELPYMRPPLSKELWFSDDPNVTKTLQFRQWNGKERSIYFQPPSFYVSAQDLPNIENGGVAVLTGKKVVHLDVRGNMVKLNDGSQITFEKCLIATGGTPRSLSAIDRAGAEVKSRTTLFRKIGDFRALEKISREVKSITVIGGGFLGSELACALGRKSQASGIEVIQLFPEKGNMGKILPQYLSNWTMEKVKREGVKVMPNAIVQSVGVSGGRLLIKLKDGRKVETDHIVTAVGLEPNVELAKTGGLEIDSDFGGFRVNAELQARSNIWVAGDAACFYDIKLGRRRVEHHDHAVVSGRLAGENMTGAAKPYWHQSMFWSDLGPDVGYEAIGLVDSSLPTVGVFAKATAQDNPKSATEQSGTGIRSESETESEASEITIPPSAPAVPQVPVEGEDYGKGVIFYLRDKVVVGIVLWNVFNRMPIARKIIKDGEQHEDLNEVAKLFNIHED
modifications: full-length
In the case of B1, the “apoptosis-associated alterations after AIF overexpression” value (Jurkat cells) is reported as “induces DYm collapse, phosphatidylserine exposure, and hypoploidy”.

Reference: patent publication US7371834B2, “Apoptosis-inducing factor” (Amgen Inc., priority 1998, dated 2008)
